{
  "source": "paper PMC9103758",
  "about": "(International Journal of Molecular Sciences, 2022)",
  "key": {"[1]": {"molecular_target": "T1, VRAC (Homo sapiens, UniProt Q8IWT6)", "T1 sequence (Q8IWT6 1-810)": "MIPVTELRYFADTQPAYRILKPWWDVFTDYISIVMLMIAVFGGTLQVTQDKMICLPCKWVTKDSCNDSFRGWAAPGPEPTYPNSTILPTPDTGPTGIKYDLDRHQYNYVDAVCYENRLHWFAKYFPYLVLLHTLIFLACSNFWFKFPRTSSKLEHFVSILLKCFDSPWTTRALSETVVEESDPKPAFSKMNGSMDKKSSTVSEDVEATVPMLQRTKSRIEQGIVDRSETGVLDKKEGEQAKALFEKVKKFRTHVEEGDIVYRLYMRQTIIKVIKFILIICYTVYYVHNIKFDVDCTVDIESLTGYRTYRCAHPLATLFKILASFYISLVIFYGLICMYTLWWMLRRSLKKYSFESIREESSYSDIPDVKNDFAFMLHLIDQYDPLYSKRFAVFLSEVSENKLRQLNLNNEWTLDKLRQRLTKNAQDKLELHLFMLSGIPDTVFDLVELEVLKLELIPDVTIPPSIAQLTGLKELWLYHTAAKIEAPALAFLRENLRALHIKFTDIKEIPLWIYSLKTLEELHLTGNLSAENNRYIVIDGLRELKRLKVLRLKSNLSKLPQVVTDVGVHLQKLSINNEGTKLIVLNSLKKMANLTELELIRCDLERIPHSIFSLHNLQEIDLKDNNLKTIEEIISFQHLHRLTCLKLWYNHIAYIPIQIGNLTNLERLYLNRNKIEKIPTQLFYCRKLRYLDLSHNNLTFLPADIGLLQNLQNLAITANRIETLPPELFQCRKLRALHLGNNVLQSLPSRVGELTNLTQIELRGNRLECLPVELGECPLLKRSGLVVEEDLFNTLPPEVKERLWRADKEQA"}, "[2]": {"molecular_target": "T2, human CFTR (Homo sapiens, UniProt P13569)", "T2 construct": "expressed in transfected cells; host or cells: Fisher rat thyroid (FRT) cells", "T2 sequence (P13569 whole entry)": "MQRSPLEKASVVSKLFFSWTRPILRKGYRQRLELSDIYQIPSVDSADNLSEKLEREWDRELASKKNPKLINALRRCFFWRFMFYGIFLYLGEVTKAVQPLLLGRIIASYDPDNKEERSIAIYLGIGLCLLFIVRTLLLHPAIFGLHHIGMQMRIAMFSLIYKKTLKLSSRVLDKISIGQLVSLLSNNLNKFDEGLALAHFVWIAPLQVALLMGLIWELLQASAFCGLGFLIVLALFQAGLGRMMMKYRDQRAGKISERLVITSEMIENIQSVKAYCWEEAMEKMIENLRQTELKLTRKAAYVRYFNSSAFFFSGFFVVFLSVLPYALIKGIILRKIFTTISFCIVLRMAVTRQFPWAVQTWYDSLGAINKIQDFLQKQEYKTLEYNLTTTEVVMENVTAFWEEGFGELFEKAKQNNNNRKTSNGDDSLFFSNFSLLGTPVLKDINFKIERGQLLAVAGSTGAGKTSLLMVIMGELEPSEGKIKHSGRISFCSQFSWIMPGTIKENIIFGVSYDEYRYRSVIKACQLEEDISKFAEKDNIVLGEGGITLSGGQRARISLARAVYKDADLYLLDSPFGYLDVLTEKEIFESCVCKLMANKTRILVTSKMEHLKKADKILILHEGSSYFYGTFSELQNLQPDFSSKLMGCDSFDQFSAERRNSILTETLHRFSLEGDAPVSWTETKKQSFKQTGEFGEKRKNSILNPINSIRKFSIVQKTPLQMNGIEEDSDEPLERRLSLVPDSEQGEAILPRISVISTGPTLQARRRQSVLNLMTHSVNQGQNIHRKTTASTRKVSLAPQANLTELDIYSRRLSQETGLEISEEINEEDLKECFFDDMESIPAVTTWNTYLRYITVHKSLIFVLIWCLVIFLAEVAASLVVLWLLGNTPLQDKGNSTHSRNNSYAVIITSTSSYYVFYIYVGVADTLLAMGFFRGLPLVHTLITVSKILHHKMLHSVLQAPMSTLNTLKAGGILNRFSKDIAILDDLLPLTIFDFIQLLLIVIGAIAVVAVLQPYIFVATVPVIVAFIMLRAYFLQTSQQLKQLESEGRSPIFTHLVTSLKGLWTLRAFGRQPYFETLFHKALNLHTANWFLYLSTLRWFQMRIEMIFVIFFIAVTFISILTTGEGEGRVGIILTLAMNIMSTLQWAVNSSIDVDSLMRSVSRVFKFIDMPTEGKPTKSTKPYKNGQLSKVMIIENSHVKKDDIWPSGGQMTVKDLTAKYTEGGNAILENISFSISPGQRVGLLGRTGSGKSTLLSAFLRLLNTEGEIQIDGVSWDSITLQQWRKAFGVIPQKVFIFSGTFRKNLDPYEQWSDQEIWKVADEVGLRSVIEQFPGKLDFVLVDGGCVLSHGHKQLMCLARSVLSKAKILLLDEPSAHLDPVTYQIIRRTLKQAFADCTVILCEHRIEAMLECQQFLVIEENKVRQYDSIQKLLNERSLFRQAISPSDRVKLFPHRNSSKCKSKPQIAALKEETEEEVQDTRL", "assay": "Apical membrane current of CFTR in FRT cells expressing human CFTR", "format": "cell-based", "details": "apical membrane current, FRT cells expressing human CFTR, 20 μM forskolin, n = 5; read-out: CFTR chloride channel IC50", "description": "[…]. (C) Summary of dose-response (mean ± S.E., n = 5). […]. (F) Summary of dose−response (mean ± S.E., n = 6).\nSnapwell inserts containing ANO1(abc) or CFTR-expressing FRT cells were mounted in Ussing chambers (Physiological Instruments, San Diego, CA). The basolateral hemichamber was filled with buffer solution (in mM): 120 NaCl, 5 KCl, 1 MgCl2, 1 CaCl2, 10 D-glucose, 2.5 HEPES, and 25 NaHCO3 (pH 7.4). The apical hemichamber was filled with buffer solution (in mM): 60 NaCl, 60 Na-gluconate, 5 KCl, 1 MgCl2, 1 CaCl2, 10 D-glucose, 2.5 HEPES, and 25 NaHCO3 (pH 7.4). FRT cells were bathed for a 10 min stabilization period and gassed with 5% CO2 and 95% O2 at 37 °C. The apical membrane current was recorded with an EVC4000 Multi-Channel V/I Clamp (World Precision Instruments, Sarasota, FL, USA) and a PowerLab 4/35 (AD Instruments, Castle Hill, Australia)."}, "[3]": {"tested_on": "NIH-3T3 cells", "assay": "Cell viability (MTS/MTT) in NIH-3T3 cells", "format": "cell-based", "details": "24 h, up to/at 30 μM", "description": "[…]. (A) Structure of VI-116. (B) Representative YFP fluorescence traces. The inhibitory effects of VI-116 on VRAC activity were determined using YFP fluorescence assay in LN215 cells. VRAC was activated by application of […] solution for 5 min. (C) Summary of VRAC dose-response (mean ± S.E., n = 4). (D) Summary of VRAC dose−response with 10% FBS (mean ± S.E., n = 4). […].\nNIH-3T3 cells were plated on 96-well microplates. After 24 h incubation, cells were treated with VI-116 or DCPIB and incubated for 24 h. The culture medium and the compounds were changed every 12 h. To assess cell proliferation, the cells were incubated with MTS for 1 h. The soluble formazan produced by the cellular reduction of MTS was quantified by measuring the absorbance at 490 nm with an Infinite M200 (Tecan, Grödig, Austria) microplate reader. MTS assay was performed using a CellTiter 96 Aqueous One Solution Cell Proliferation Assay kit (Promega, Madison, WI, USA)."}},
  "data": [
    {"smiles": "COc1cccc(C(c2c(O)c3ccccc3oc2=O)c2c(O)c3ccccc3oc2=O)c1O", "note": "[VI-116, 3,3′-((2-hydroxy-3-methoxyphenyl)methylene)bis(4-hydroxy-2H-chromen-2-one)]", "values": [
      {"measurement": "effect on VRAC", "setting": "[1]; 10 μM", "result": "completely inhibits"},
      {"measurement": "effect on VRAC activity (VRAC-mediated I- quenching)", "setting": "[1]; LN215 cells", "result": "fully inhibited"},
      {"measurement": "decrease of potency on VRAC with 10% FBS compared to without FBS", "setting": "[1]; LN215 cells, 10% FBS", "result": 5.4, "unit": "fold"},
      {"measurement": "IC50", "setting": "[2]", "result": 12.4, "unit": "µM"},
      {"measurement": "effect on cell viability", "setting": "[3]", "result": "did not affect cell viability"}
    ]}
  ]
}
